Among the data in ChEMBL document CHEMBL4477227, “Synthesis and antibacterial evaluation of macrocyclic diarylheptanoid derivatives” (Bioorg Med Chem Lett, 2016) are MIC and IC50 values, retold here.

For assay [1], the system named is Proteus vulgaris. In words: Antibacterial activity against Proteus vulgaris ATCC 33420 by microbroth dilution method. The class given is functional. On the technique in general: Dilution methods test growth across graded concentrations, often in twofold steps.
Assay [2] concerns Escherichia coli. The assay is described as follows: Antibacterial activity against Escherichia coli K-12 by microbroth dilution method. The format is functional.
Assay [3] concerns Staphylococcus aureus. In words: Antibacterial activity against methicillin-sensitive Staphylococcus aureus ATCC 29213 by microbroth dilution method. The format is functional. The following applies: Staphylococcus aureus, ATCC 29213; read-out: MIC.
Assay [4] concerns Escherichia coli. In words: Antibacterial activity against Escherichia coli harboring TolC deletion mutant by microbroth dilution method. The format is functional. As to conditions: Escherichia coli; read-out: MIC.
Assay [5] concerns Streptococcus pyogenes. The assay is described as follows: Antibacterial activity against Streptococcus pyogenes ATCC 700294 by microbroth dilution method. The format is functional. As to conditions: Streptococcus pyogenes, ATCC 700294; read-out: MIC.
For assay [6], the system named is Streptococcus pneumoniae. In words: Antibacterial activity against Streptococcus pneumoniae R6 by microbroth dilution method. The class given is functional. As to conditions: Streptococcus pneumoniae, R6; read-out: MIC.
In assay [7] the test system is Bacillus anthracis. In words: Antibacterial activity against Bacillus anthracis Sterne 34F2 by microbroth dilution method. The format is functional. As to conditions: Bacillus anthracis, Sterne 34F2; read-out: MIC.
The subject of assay [8] is Burkholderia cepacia. The assay is described as follows: Antibacterial activity against Burkholderia cepacia ATCC 25416 by microbroth dilution method. The class given is functional.
In assay [9] the test system is Enterococcus faecalis. The assay is described as follows: Antibacterial activity against Enterococcus faecalis ATCC 33186 by microbroth dilution method. The format is functional. As to conditions: Enterococcus faecalis, ATCC 33186; read-out: MIC.
The subject of assay [10] is Pseudomonas aeruginosa. The assay is described as follows: Antibacterial activity against Pseudomonas aeruginosa PAO1 by microbroth dilution method. The format is functional.
Assay [11] relates to Acinetobacter baumannii. The assay is described as follows: Antibacterial activity against Acinetobacter baumannii ATCC 19606 by microbroth dilution method. The format is functional, ATCC 19606 = CIP 70.34 = JCM 6841. The following applies: Acinetobacter baumannii, ATCC 19606 = CIP 70.34 = JCM 6841; read-out: MIC.
The subject of assay [12] is Vero. In words: Cytotoxicity against African green monkey Vero cells assessed as reduction in cell viability after 72 hrs by CellTiterGlo assay. The following applies: Chlorocebus sabaeus. The class given is cell-based. A general note: Cellular ATP, detected with luciferase, serves as a proxy for viable cell number.
Assay [13] has as its system Klebsiella pneumoniae. The assay is described as follows: Antibacterial activity against Klebsiella pneumoniae ATCC 33495 by microbroth dilution method. The class given is functional.
The test system of assay [14] is Proteus mirabilis. The assay is described as follows: Antibacterial activity against Proteus mirabilis ATCC 25933 by microbroth dilution method. The class given is functional.
The subject of assay [15] is Mycobacterium tuberculosis. The assay is described as follows: Antitubercular activity against Mycobacterium tuberculosis H37Rv by microbroth dilution method. The class given is functional. As to conditions: Mycobacterium tuberculosis, H37Rv; read-out: MIC.
The test system of assay [16] is Bacillus subtilis. In words: Antibacterial activity against Bacillus subtilis ATCC 23857 by microbroth dilution method. The following applies: Bacillus subtilis, ATCC 23857; read-out: MIC. The class given is functional.
Assay [17] has as its system Staphylococcus aureus. The assay is described as follows: Antibacterial activity against methicillin-resistant Staphylococcus aureus NRS70 by microbroth dilution method. The format is functional. As to conditions: Staphylococcus aureus, NRS70; read-out: MIC.
Assay [18] concerns J774.1. The assay is described as follows: Inhibition of LPS-induced NO production in mouse J774.1 cells after 24 by Griess assay. The class given is functional, cell-based. Background: Griess reagent forms a coloured azo dye with nitrite.

In brackets after ≈: the same amount, converted by molar mass.

As for `COc1ccc2cc1Oc1cc(ccc1OC)CCC(NC/C=C(\C)CCC=C(C)C)CCCC2` (centres undefined), the MIC (usually the least concentration at which growth counts as inhibited) in assay [1] was above 100 µg/mL; in [2] it was 50 µg/mL (≈ 105 µM); in assay [3], 12.5 µg/mL (≈ 26.2 µM); in assay [4] it was 6.25 µg/mL (≈ 13.1 µM); in [5], 25 µg/mL (≈ 52.3 µM); in [6], 50 µg/mL (≈ 105 µM). Also, the MIC was 12.5 µg/mL (≈ 26.2 µM) in [7]; above 100 µg/mL in [8]; 12.5 µg/mL (≈ 26.2 µM) in assay [9]; above 100 µg/mL in assay [10]; 25 µg/mL (≈ 52.3 µM) in assay [11]; above 100 µg/mL in [13]. For the same compound, the minimum inhibitory concentration (MIC) in assay [14] is above 100 µg/mL; in [15] it was 12.5 µg/mL (≈ 26.2 µM); in [16] it was 3.12 µg/mL (≈ 6.54 µM); in assay [17], 6.25 µg/mL (≈ 13.1 µM). Further, the 50% inhibitory concentration (IC50) – broadly, the concentration needed to halve the response being measured – in assay [12] amounted to 5.6 µg/mL (≈ 11.7 µM).

`O=C1CCCCc2ccc(OC(=O)c3ccccc3)c(c2)Oc2ccc(cc2)CC1`: half-maximal inhibition in [18] (IC50) was put at 13 µM.

Take `COc1ccc2cc1Oc1cc(ccc1OC)CCC(NCCc1ccc(F)cc1)CCCC2` (centres undefined): the minimal inhibitory concentration (MIC) is above 100 µg/mL in assay [1]; above 100 µg/mL in [2]; 25 µg/mL (≈ 53.9 µM) in assay [3]; 12.5 µg/mL (≈ 27 µM) in [4]; 25 µg/mL (≈ 53.9 µM) in assay [5]; 50 µg/mL (≈ 108 µM) in [6]. For the same compound, the MIC in assay [7] is 25 µg/mL (≈ 53.9 µM); in [8] it was above 100 µg/mL; in [9], 25 µg/mL (≈ 53.9 µM); in assay [10], above 100 µg/mL; in [11] it was 25 µg/mL (≈ 53.9 µM); in [13], above 100 µg/mL. Also, the minimum inhibitory concentration (MIC) in assay [14] was above 100 µg/mL; in [15], 25 µg/mL (≈ 53.9 µM); in assay [16] it was 12.5 µg/mL (≈ 27 µM); in [17] it was 12.5 µg/mL (≈ 27 µM). Moreover, the IC50 in assay [12] was 7.3 µg/mL (≈ 15.7 µM).

Turning to `COc1ccc2cc1Oc1ccc(cc1)CCC(NCCc1ccc(F)cc1)CCCC2` (centres undefined), the MIC in [1] was above 100 µg/mL; in assay [2], above 100 µg/mL; in [3], 12.5 µg/mL (≈ 28.8 µM); in [4], 6.25 µg/mL (≈ 14.4 µM); in [5] it was 25 µg/mL (≈ 57.7 µM); in assay [6], 50 µg/mL (≈ 115 µM). The MIC is 12.5 µg/mL (≈ 28.8 µM) in assay [7]; above 100 µg/mL in assay [8]; 12.5 µg/mL (≈ 28.8 µM) in [9]; above 100 µg/mL in assay [10]; 50 µg/mL (≈ 115 µM) in assay [11]; above 100 µg/mL in assay [13]. The MIC is above 100 µg/mL in assay [14], 12.5 µg/mL (≈ 28.8 µM) in [15], 6.25 µg/mL (≈ 14.4 µM) in assay [16] and 6.25 µg/mL (≈ 14.4 µM) in [17]. The half-inhibitory concentration (IC50) in assay [12] turned out to be 3.7 µg/mL (≈ 8.53 µM).

`COc1ccc2cc1Oc1cc(ccc1OC)CCC(NCCc1ccc3ccccc3c1)CCCC2` (centres undefined): the MIC was above 100 µg/mL in [1]; above 100 µg/mL in [2]; 12.5 µg/mL (≈ 25.2 µM) in [3]; 6.25 µg/mL (≈ 12.6 µM) in assay [4]; 12.5 µg/mL (≈ 25.2 µM) in assay [5]; 25 µg/mL (≈ 50.4 µM) in assay [6]. For the same compound, the MIC in assay [7] was 12.5 µg/mL (≈ 25.2 µM); in assay [8], above 100 µg/mL; in assay [9], 12.5 µg/mL (≈ 25.2 µM); in [10], above 100 µg/mL; in [11], above 100 µg/mL; in [13] it was above 100 µg/mL. The MIC in assay [14] is above 100 µg/mL; in assay [15], 25 µg/mL (≈ 50.4 µM); in assay [16] it was 6.25 µg/mL (≈ 12.6 µM); in [17], 6.25 µg/mL (≈ 12.6 µM). Further, in assay [12], the concentration for half-maximal inhibition (IC50) came out at 7 µg/mL (≈ 14.1 µM).
